Test results taken from patent US20240398706A1, “INJECTABLE FORMULATIONS OF APREPITANT” (Good Health, LLC, priority 2021, published 2024).

Key:
[1] = after oral administration; cited from earlier work
[2] = pH and clarity of 5.55 mg/mL sodium oleate solution; type: physicochemical; details: sodium oleate 5.55 mg/mL solution
Description: After the initial pH measurement discussed above, the compositions of this embodiment have a pH value of at least 7.5. In some embodiments the PH is in the range of between 7.5-10.5 or between 8.5-10.8. This pH value is observed a short period, e.g. a few days, after formation of the emulsion, and is to be contrasted with the initial pH value which is measured substantially immediately after the formation of the emulsion. Preferably, the fatty acid content of the oleate is high, e.g. at least about 80% and the alkalinity of oleate when tested as an aqueous solution is also relatively high, e.g. at least about pH of 10.3 of 0.55% W/V solution in water.

[3] = Emulsion formation of Form-81 with sodium oleate from different sources; type: physicochemical; details: Form-81 with sodium benzoate, after mixing oil and water phases and stirring
Description: The solution was heated to about 55-68° C., while stirring aprepitant was added and continued stirring until all of the drug is dissolved. After cooling to room temperature, Sodium oleate was added to mixture and stirred to get uniform dispersion. Ethanol quantity adjusted by adding ethanol to mixture to compensate loss. Weight of container was recorded at each stage.
Oil phase slowly added to water phase slowly while water phase stirred at 1000 RPM using overhead stirrer.
Coarse emulsion was milled using microfluidizer (Microfluidizer LM-25/30), […].

C[C@@H](O[C@H]1OCCN(Cc2n[nH]c(=O)[nH]2)[C@H]1c1ccc(F)cc1)c1cc(C(F)(F)F)cc(C(F)(F)F)c1 [Aprepitant]
oral bioavailability [1]: about 69%

CCCCCCCC/C=C\CCCCCCCC(=O)[O-].[Na+] [Sodium Oleate from Doosan, South Korea, Sodium Oleate]
Clarity [2]: Clear solution
Emulsion formation [3]: slightly viscous emulsions

CCCCCCCC/C=C\CCCCCCCC(=O)[O-].[Na+] [Sodium Oleate from Lipoid, Germany, Sodium Oleate]
Clarity [2]: Hazy solution
pH of 5.55 mg/mL solution [2]: 10.36
Emulsion formation [3]: slightly viscous emulsions

CCCCCCCC/C=C\CCCCCCCC(=O)[O-].[Na+] [Sodium Oleate from Loba Chemie, India, Sodium Oleate]
Clarity [2]: Clear solution
pH of 5.55 mg/mL solution [2]: 10.78
Emulsion formation [3]: Free flowing emulsion.
Emulsion formation ([3]; listed as oleate from Loba Chemie): free-flowing emulsion
